In patent US20110020312A1, “METHODS FOR TREATMENT OF METABOLIC DISORDERS USING EPIMETABOLIC SHIFTERS, MULTIDIMENSIONAL INTRACELLULAR MOLECULES, OR ENVIRONMENTAL INFLUENCERS” (priority 2009, published 2011):

How the values were obtained:
HepG2 liver cancer cells = assay: ApoStrand ELISA apoptosis assay (single-stranded DNA); format: cell-based
Description: The ApoStrand™ ELISA is based on the sensitivity of DNA in apoptotic cells to formamide denaturation and the detection of the denatured DNA with a monoclonal antibody to single-stranded DNA (ssDNA).

[1] = test system: Pancreatic Cancer Cells (PaCa2); assay: Real-time PCR Angiogenesis Array; format: cell-based; conditions: 100 uM Q10, various times
Description: Experiments were carried out essentially as described above.

normal fibroblast = assay: Bcl2 level after co-administration of CoQ-10 and VEGF; format: cell-based; conditions: co-administration with VEGF
Caspase 3 = assay: Western blot, Caspase 3 levels; format: cell-based, human
Description: The blots were stripped by incubating for 30 minutes with methanol, followed by two 10 minute washes with TBS-T, then 30 minutes of incubation with Stripping buffer at 50 deg C., and followed by two washes with 100 ml or more of TBS-T for 30′ each. The 2 blots were scanned in laser scanner to check for complete stripping. The blots were activated with methanol for 5 seconds, washed with water for 5 minutes, and TBST for 15 minutes. The blots were blocked for 1 hour with 5% blocking reagent in TBS-T at room temperature and then washed 3 times with TBS-T (1×-15′; 2×5′ each) and probed with the antibody for Caspase 3 in 5% BSA (Santacruz Biotechnology # sc7272) at 1:200 dilutions) overnight at 4 deg C. with shaking. After the overnight incubation with primary antibody for Caspase 3, the membranes were washed 3 times with TBS-T (1×-15′; 2×5′ each) and probed with the secondary antibody (antimouse; 1:10,000 dilution) for 1 h on the orbital tilting shaker at room temperature. After 1 h of incubation with secondary antibodies, the blots were washed 3 times with TBS-T (1×-15′; 2×5′ each) and then incubated with ECF reagent for 5 minutes and then each blot scanned with 5100 Fuji Laser scanner at 25 uM resolution, 16 bit, green laser, at 400V and at 500 V.
The samples were processed and the gels were run, transferred, stained and scanned essentially as described above.
The levels of Caspase 3 and actin were determined by probing the blots successively with primary antibodies for Caspase 3 and actin, essentially as described above.
The Actin blots were stripped by incubating for 30 minutes with methanol, followed by two 10 minute washes with TBS-T, then 30 minutes of incubation with Stripping buffer at 50 deg C., and followed by two washes with 100 ml or more of TBS-T for 30′ each. The blots were scanned in laser scanner to check for complete stripping. The blots were activated with methanol for 5 seconds, washed with water for 5 minutes, and TBST for 15 minutes. The blots were blocked for 1 hour with 5% blocking reagent in TBS-T at room temperature and then washed 3 times with TBS-T (1×-15′; 2×5′ each) and probed with the primary antibody for Hif 1 alpha, Caspase 3 or PDHB in 5% BSA (at 1:200 by incubation overnight at 4 deg C. with gentle shaking. The primary antibody for Hif 1 alpha (Abcam ab2185; antirabbit) was at 1:500 dilution in 5% BSA. The primary antibody for Caspase 3 (Santacruz sc7272; antirabbit) was at 1:200 dilution in 5% BSA. The primary antibody for Pyruvate Dehydrogenase beta (PDHB) (Novus Biologicals H00005162-M03; antimouse) was at 1:500 dilution in 5% BSA. After incubation with primary antibodies, the membranes were washed 3 times with TBS-T (1×-15′; 2×5′ each) and probed with the secondary antibody (PDHB antimouse; Hif 1a and Caspase 3 antirabbit; 1:10,000 dilution) for 1 h at room temperature. After 1 h of incubation with secondary antibodies, the blots were washed 3 times with TBS-T (1×-15′; 2×5′ each) and then incubated with ECF reagent for 5 minutes and then each blot scanned with 5100 Fuji Laser scanner at 25 uM resolution, 16 bit, green laser, at 400V and at 500 V.
The Actin blots were stripped by incubating for 30 minutes with methanol, followed by two 10 minute washes with TBS-T, then 30 minutes of incubation with Stripping buffer at 50 deg C., and followed by two washes with 100 ml or more of TBS-T for 30′ each. The blots were activated with methanol for 5 seconds, washed with water for 5 minutes, and TBST for 15 minutes. The blots were blocked for 1 hour with 5% blocking reagent in TBS-T at room temperature and then washed 3 times with TBS-T (1×-15′; 2×5′ each) and probed with the primary antibody for Caspase 3 or MMP-6 in 5% BSA by incubation overnight at 4 deg C. with gentle shaking. The primary antibody for Caspase 3 (Abcam ab44976-100; antirabbit) was at 1:500 dilution in 5% BSA. The primary antibody for MMP-6 (Santacruz scMM0029-ZB5; antimouse) was at 1:100 dilution in 5% BSA. […]

COC1=C(OC)C(=O)C(C/C=C(\C)CC/C=C(\C)CC/C=C(\C)CC/C=C(\C)CC/C=C(\C)CC/C=C(\C)CC/C=C(\C)CC/C=C(\C)CC/C=C(\C)CCC=C(C)C)=C(C)C1=O [Q10, Coenzyme Q10]
detectable apoptosis (ApoStrand ELISA) (HepG2 liver cancer cells; 50 μM Q10): 17% | detectable apoptosis (ApoStrand ELISA) (HepG2 liver cancer cells; 100 μM Q10): 32% | genes modulated by Q10 treatment (Angiogenesis arrays) [1]: AKT1, ANGPTL4, ANGPEP, CCL2, CDH4, CXCL1, EDG1, EFNA3, EFNB2, EGF, FGF1, ID3, IL1B, 1L8, KDR, NRP1, PECAM1, PROK2, SERPINF1, SPHK1, STAB1, TGFB1, VEGFA and VEGFB | levels of Bcl2 (normal fibroblast): no effect | Caspase 3 Normalized Volume (Caspase 3; HASMC, 5g48-50): 766 | Caspase 3 Normalized Volume (Caspase 3; HASMC, 5g48-100): 669 | Caspase 3 Normalized Volume (Caspase 3; HASMC, 22G24-50): 835 | Caspase 3 Normalized Volume (Caspase 3; HASMC, 22G24-100): 865 | Caspase 3 Normalized Volume (Caspase 3; HASMC, 22G48-50): 639 | Caspase 3 Normalized Volume (Caspase 3; HASMC, 22G48-100): 624 | Caspase 3 Normalized Volume as a % (Caspase 3; HepG2, 5g24-50, 2 Experiments): 108% | Caspase 3 Normalized Volume as a % (Caspase 3; HepG2, 5g24-100, 2 Experiments): 176% | Caspase 3 Normalized Volume as a % (Caspase 3; HepG2, 5g48-50, 2 Experiments): 144% | Caspase 3 Normalized Volume as a % (Caspase 3; HepG2, 5g48-100, 2 Experiments): 95% | Caspase 3 Normalized Volume as a % (Caspase 3; HepG2, 22G24-50, 2 Experiments): 139% | Caspase 3 Normalized Volume as a % (Caspase 3; HepG2, 22G24-100, 2 Experiments): 178% | Caspase 3 Normalized Volume as a % (Caspase 3; HepG2, 22G48-50, 2 Experiments): 150% | Caspase 3 Normalized Volume as a % (Caspase 3; HepG2, 22G48-100, 2 Experiments): 145% | Caspase 3 Normalized Volume (Caspase 3; PACA2, 5g-50, 24 h): 325 | Caspase 3 Normalized Volume (Caspase 3; PACA2, 5g-50, 48 h): 701 | Caspase 3 Normalized Volume (Caspase 3; PACA2, 5g-100, 24 h): 374 | Caspase 3 Normalized Volume (Caspase 3; PACA2, 5g-100, 48 h): 291 | Caspase 3 Normalized Volume (Caspase 3; PACA2, 22G-50, 24 h): 675 | Caspase 3 Normalized Volume (Caspase 3; PACA2, 22G-50, 48 h): 497 | Caspase 3 Normalized Volume (Caspase 3; PACA2, 22G-100, 24 h): 842 | Caspase 3 Normalized Volume (Caspase 3; PACA2, 22G-100, 48 h): 559 | levels of caspase 3 (Caspase 3; cancer cells): increased | expression of Caspase-3 (Caspase 3; normal cells): moderately decreased
